# In patent US20090010873A1, “Methods of Cell Therapy, Neurogenesis and Oligodendrogenesis” (YEDA RESEARCH AND DEVELOPMENT CO. LTD., priority 2004, published 2009):
# Columns and labels:
# [1] = tested on: C57B1/6J mice with spinal cord injury; assay: Spinal cord contusion in mice: motor recovery (Basso motor score) after immunization and aNPC transplantation; type: in vivo, mouse
# [2] = tested on: neural progenitor cells (NPCs); assay: NPCs co-cultured with microglia pre-activated by aggregated Aβ and cytokines (β-III-tubulin); type: cell-based, mouse; details: 10 days co-culture; Aβ 5 μM, IFN-γ 10 ng/ml
# Experimental: (xlvi) Reagents. Recombinant mouse IFN-γ and IL-4 (both containing endotoxin at a concentration below 0.1 ng/μg cytokine) were obtained from R&D Systems (Minneapolis, Minn.). β-amyloid peptides [amyloid protein fragment 1-40 and 1-42 (Aβ1-40/1-42)] were purchased from Sigma-Aldrich, St. Louis, Mo. The Aβ peptides were dissolved in endotoxin-free water, and Aβ aggregates were formed by incubation of Aβ, as described (Ishii et al., 2000).
# (li) Neural progenitor cell culture. Coronal sections (2 mm thick) of tissue containing the subventricular zone of the lateral ventricle were obtained from the brains of adult C57B1/6J mice. The tissue was minced and then incubated for digestion at 37° C., 5% CO2 for 45 min in Earle's balanced salt solution containing 0.94 mg/ml papain (Worthington, Lakewood, N.J.) and 0.18 mg/ml of L-cysteine and EDTA. After centrifugation at 110×g for 15 min at room temperature, the tissue was mechanically dissociated by pipette trituration. Cells obtained from single-cell suspensions were plated (3500 cells/cm^2) in 75-cm^2 Falcon tissue-culture flasks (BD Biosciences, San Diego, Calif.), in NPC-culturing medium [Dulbecco's modified Eagles's medium (DMEM)/F12 medium (Gibco/Invitrogen, Carlsbad, Calif.) containing 2 mM L-glutamine, 0.6% glucose, 9.6 μg/ml putrescine, 6.3 ng/ml progesterone, 5.2 ng/ml sodium selenite, 0.02 mg/ml insulin, 0.1 mg/ml transferrin, 2 μg/ml heparin (all from Sigma-Aldrich, Rehovot, Israel), fibroblast growth factor-2 (human recombinant, 20 ng/ml), and epidermal growth factor (human recombinant, 20 ng/ml; both from Peprotech, Rocky Hill, N.J.)]. Spheres were passaged every 4-6 days and replated as single cells. Green fluorescent protein (GFP)-expressing NPCs were obtained as previously described (Pluchino et al., 2003).
# (lii) Primary microglial culture. Brains from neonatal (P0-P1) C57B1/6J mice were stripped of their meninges and minced with scissors under a dissecting microscope (Zeiss, Stemi DV4, Germany) in Leibovitz-15 medium (Biological Industries, Kibbutz Beit Ha-Emek, Israel). […]
# [3] = tested on: neural progenitor cells (NPCs); assay: Oligodendrocyte differentiation of GFP-expressing NPCs co-cultured with differently activated microglia (NG2, RIP); type: cell-based, mouse; details: direct addition to NPCs, 500 ng/ml, no insulin
# Experimental: (i) Neuralprogenitor cell (NPC) culture. Coronal sections (2 mm thick) of tissue containing the subventricular zone of the lateral ventricle were obtained from the brains of adult C57B16/J mice. The tissue was minced and then incubated for digestion at 37° C., 5% CO2 for 45 mine in Earle's balanced salt solution containing 0.94 mg/ml papain (Worthington, Lakewood, N.J.) and 0.18 mg/ml of L-cysteine and EDTA. After centrifugation at 110×g for 15 min at room temperature, the tissue was mechanically dissociated by pipette trituration. Cells obtained from single-cell suspensions were plated (3500 cells/cm^2) in 75-cm^2 Falcon tissue-culture flasks (BD Biosciences, Franklin Lakes, N.J.), in NPC-culturing medium [Dulbecco's modified Eagles's medium (DMEM)/F12 medium (Gibco/Invitrogen, Carlsbad, Calif.) containing 2 mM L-glutamine, 0.6% glucose, 9.6 μg/ml putrescine, 6.3 ng/ml progesterone, 5.2 ng/ml sodium selenite, 0.02 mg/ml insulin, 0.1 mg/ml transferrin, 2 μg/ml heparin (all from Sigma-Aldrich, Rehovot, Israel), fibroblast growth factor-2 (human recombinant, 20 ng/ml), and epidermal growth factor (human recombinant, 20 ng/ml; both from Peprotech, Rocky Hill, N.J.)]. Spheres were passaged every 4-6 days and replated as single cells. Green fluorescent protein (GFP)-expressing neural progenitor cells (NPCs) were obtained as previously described (Pluchino et al., 2003). […]
substance,measurement,setting,value
"altered MOG peptide (45D) MEVGWYRSPFDRVVHLYRNGK [45D peptide, peptide analog of MOG 35-55 containing a serine to aspartic acid substitution]",BMS,"[1]; immunization in CFA 2.5% M. tuberculosis 1 week before SCI, aNPCs i.c.v. 1 week after SCI, mean±SEM",4.11±0.27
same,BMS,"[1]; immunization in CFA 2.5% M. tuberculosis 1 week before SCI, without aNPC transplantation",2.57±0.24
Aβ(1-40): aggregated amyloid protein fragment 1-40 used to activate microglia,GFP^+/βIIIT^+ cells (neurogenesis) with microglia activated by the agent,[2],blocked neurogenesis
rIGF-I: recombinant IGF-I,differentiation of NPCs to NG2-expressing cells,[3],significant differentiation to NG2-expressing cells
"MOG/CFA/PBS: immunization with pMOG 35-55 in CFA, PBS i.c.v. instead of aNPCs (MEVGWYRSPFSRVVHLYRNGK; in CFA; UniProt Q61885 63-83, looked up, fragment)",mean motor recovery (BMS) score,"[1]; immunization immediately after SCI (pMOG 35-55 or PBS in CFA 0.5% M. tuberculosis), aNPCs or PBS i.c.v. 1 week later, mean±SEM",2.71±0.5
"MOG, residues 35-55 MEVGWYRSPFSRVVHLYRNGK (emulsified in CFA) [MOG/CFA, MOG peptide 35-55 emulsified in CFA containing 2.5% Mycobacterium tuberculosis]",BMS,"[1]; MOG peptide 35-55 in CFA 2.5% M. tuberculosis one week prior to SCI, no aNPCs",0.35±0.2
Aβ(1-42): amyloid protein fragment 1-42 used to activate microglia,GFP^+/βIIIT^+ cells (neurogenesis) with microglia activated by the agent,[2],negative effect was not exhibited
"OVA/CFA/PBS: nonself protein ovalbumin (OVA) emulsified in CFA, PBS i.c.v.",BMS,"[1]; ovalbumin in CFA 2.5% M. tuberculosis, aNPCs or PBS i.c.v.",2.2±0.68
